Laboratory results taken from patent publication EP1288226A1, “Modification of the expression levels of Toll-like receptor familiy members for influencing neurodegeneration and neuroprotection in the human central nervous system” (NEDERLANDSE ORGANISATIE VOOR …, priority 2001, dated 2003).

How the values were obtained:
Assay in all cases: TLR expression in primary human microglia after stimulation, semi-quantitative RT-PCR
Format in all cases: cell-based
Details in all cases: aggregated peptide 5 µM, 6 h or 24 h
[1] = system: TLR2
Method: (§1) Primary human microglia, oligodendrocytes and astrocytes used in this study were isolated from the human white matter samples obtained from the patients listed in Table 1, as previously described (Bajramovic et al., 2000a and 2000b; De Groot et al., 2000). Briefly, brain tissues dissected from corpus callosum or subcortical white matter were collected and blood vessels were removed. After a 20-min digestion in 0.25 % (w/v) trypsine (Sigma, St. Louis, MO) and 0.1 mg/ml DNAse (Boehringer Mannheim, Mannheim, Germany) the cell suspension was gently triturated and washed with DMEM/HAM-F10 medium containing 10 % (v/v) FCS and antibiotic supplements. After passage through a 100-µm filter, myelin was removed by Percoll gradient centrifugation. Erythrocytes were lysed by a 15-min incubation on ice with 155 mM NH4Cl, 1 mM KHCO3, 0.2 % (w/v) BSA.
(§2) Primary cultures of microglia, astrocytes and oligodendrocytes were set up in DMEM/HAM-F10 medium containing 10 % (v/v) FCS and antibiotic supplements. Recombinant human granulocyte-macrophage colony stimulating factor (rhGM-CSF, PeproTech Inc, USA) was added to microglial cultures every 3 days at a final concentration of […]. Cells were analyzed for TLR expression after 10-14 days following the start of the culture.
(§3) Total cellular RNA was isolated from human glia cells using RNAZol™B (Campro scientific, Veenendaal, The Netherlands) and 2.5 µg RNA was reverse transcribed, using reverse transcription system (Promega, Madison, USA). PCR amplifications were performed on 1 µl copy DNA and 49 µl PCR mix (40 µl milliQ + 5 µl MgCl2 (see below for concentration) + 1 µl 10 mM dNTP mix + 1 µl 20 pmol/µl primer + 1 µl 20 pmol/µl anti sense primer and 0.2 µl taq polymerase). For β-actin, TLR1, TLR2, TLR3, TLR5, TLR6, TLR7 and TLR 9, 22 mM MgCl2 was used, for TLR4, 15 mM MgCl2 and for TLR8, 30 mM MgCl2. Amounts of TLR-encoding mRNA for each TLR were calculated by comparing the yield of each amplicon after 40 cycles to that for β-actin, and by determining the amounts of β-actin encoding mRNA in each sample by competitive quantitative RT-PCR as described previously (Bajramovic et al., 2000a; Bajramovic et al., 2000b).
(§4) Amyloid-β-protein-derived peptide 1-42 (Bachem, Bubendorf, Switzerland) was dissolved in water at 1 mM and kept at 37°C for 1 week to allow for aggregation to occur. The aggregated peptide was added to cultured microglia at a final concentration of 5 µM and TLR expression was determined as described above after varying periods of incubation time. As another CNS-derived stimulant, human recombinant alpha B-crystallin (prepared by TNO Prevention and Health, Leiden) was used at a final concentration of 15 µg/mL.

[2] = system: TLR3
Method: as §1, §2, §3, §4

[3] = system: other TLR
Method: as §1, §2, §3, §4

[4] = listed as Amyloid β protein-derived peptide 1-42
[5] = listed as amyloid β-protein derived peptide 1-42

## amyloid β protein-derived peptide 1-42: Amyloid-β-protein-derived peptide 1-42 (Bachem), dissolved in water at 1 mM and kept at 37°C for 1 week to allow aggregation
[1]
  levels of TLR2-encoding mRNA: rapid mild inductive effect
[1]; [4]
  levels of TLR2-encoding mRNA: elevated expression
[1]; [5]
  levels of TLR2-encoding mRNA: strong effects
[2]
  levels of TLR3-encoding mRNA: stronger inductive effects
[2]; [4]
  levels of TLR3-encoding mRNA: elevated expression
[2]; [5]
  levels of TLR3-encoding mRNA: strong effects
[3]
  expression of mRNA encoding other TLR: not influenced
[3]; [4]
  expression of mRNA encoding other TLR: not affecting
